# US11576380B2 (priority 2017, dated 2023)
# Read-outs that look alike come from different tables or passages of the source.
# Experiments:
# Pyricularia oryzae = assay: microbe, parasite or virus in culture; assay type: cell-based; conditions: for benzovindiflupyr (B) inhibition (%): Table 1; for benzovindiflupyr (B) inhibition (%) / azoxystrobin (B) inhibition (%): 72 hours; for azoxystrobin (B) inhibition (%): Table 2
# Mycosphaerella arachidis = assay: Liquid culture test in well plates, Mycosphaerella arachidis syn. Cercospora arachidicola (peanut brown leaf spot), Example 6; assay type: cell-based; conditions: Table 4, approximately 5-6 days
# Method: The compositions according to the invention are tested for their biological (fungicidal) activity as dimethylsulfoxide (DMSO) solutions using one or more of the following protocols (Examples 2 to 8). A standard description of the liquid culture tests is provided in Example 1.
# Mycelia fragments or conidia suspensions of a fungus, prepared either freshly from liquid cultures of the fungus or from cryogenic storage, are directly mixed into nutrient broth. DMSO solutions of the test compound (max. 10 mg/mL) is diluted with 0.025% Tween20 by factor 50 and 10 μL of this solution is pipetted into a microtiter plate (96-well format). The nutrient broth containing the fungal spores/mycelia fragments is then added to give an end concentration of the tested compound. The test plates are incubated in the dark at 24° C. and 96% relative humidity (rh). The inhibition of fungal growth is determined photometrically and visually after 3-7 days, depending on the pathosystem, and percent antifungal activity relative to the untreated check is calculated.
# Conidia of the fungus from cryogenic storage were directly mixed into nutrient broth (PDB potato dextrose broth). After placing a DMSO solution of the test compositions into a microtiter plate (96-well format), the nutrient broth containing the fungal spores was added. The test plates were incubated at 24° C. and the inhibition of growth was determined photometrically after approximately 5-6 days.
smiles,measurement,setting,value
Cn1cc(C(=O)Nc2cccc3c2[C@@H]2CC[C@H]3C2=C(Cl)Cl)c(C(F)F)n1 (racemic) [benzovindiflupyr],benzovindiflupyr (B) inhibition (%),Pyricularia oryzae; benzovindiflupyr alone 0.0125 ppm,20%
same,benzovindiflupyr (B) inhibition (%),Pyricularia oryzae; benzovindiflupyr alone 0.0250 ppm,50%
same,benzovindiflupyr (B) inhibition (%),Pyricularia oryzae; benzovindiflupyr alone 0.0500 ppm,70%
same,benzovindiflupyr (B) inhibition (%),Pyricularia oryzae; benzovindiflupyr alone 0.1000 ppm,90%
CO/C=C(/C(=O)OC)c1ccccc1Oc1cc(Oc2ccccc2C#N)ncn1 [azoxystrobin],azoxystrobin (B) inhibition (%),Pyricularia oryzae; azoxystrobin alone 0.0250 ppm,0%
same,azoxystrobin (B) inhibition (%),Pyricularia oryzae; azoxystrobin alone 0.0500 ppm,0%
same,azoxystrobin (B) inhibition (%),Pyricularia oryzae; azoxystrobin alone 0.1000 ppm,0%
same,azoxystrobin (B) inhibition (%),Pyricularia oryzae; azoxystrobin alone 0.2000 ppm,0%
N#Cc1c(Cl)c(Cl)c(Cl)c(C#N)c1Cl [chlorothalonil],inhibition at 0.25 ppm,"Pyricularia oryzae; Pyricularia oryzae, 72 h, read-out: chlorothalonil (B) inhibition (%), Table 3, chlorothalonil alone 0.2500 ppm",0%
same,inhibition at 0.5 ppm,"Pyricularia oryzae; Pyricularia oryzae, 72 h, read-out: chlorothalonil (B) inhibition (%), Table 3, chlorothalonil alone 0.5000 ppm",0%
same,inhibition at 1 ppm,"Pyricularia oryzae; Pyricularia oryzae, 72 h, read-out: chlorothalonil (B) inhibition (%), Table 3, chlorothalonil alone 1.0000 ppm",20%
"COc1ccnc(C(=O)N[C@@H](C)C(=O)O[C@@H](C)C(c2ccc(F)cc2)c2ccc(F)cc2)c1OC(C)=O [florylpicoxamid, (1S)-2,2-bis(4-fluorophenyl)-1-methylethyl N-{[3-(acetyloxy)-4-methoxy-2-pyridyl]carbonyl}-L-alaninate]",inhibition at 0.025 ppm,"Mycosphaerella arachidis; Mycosphaerella arachidis, florylpicoxamid alone 0.0250 ppm",4%
same,inhibition at 0.05 ppm,"Mycosphaerella arachidis; Mycosphaerella arachidis, florylpicoxamid alone 0.0500 ppm",15%
same,inhibition at 0.1 ppm,"Mycosphaerella arachidis; Mycosphaerella arachidis, florylpicoxamid alone 0.1000 ppm",38%
same,inhibition at 0.0031 ppm,"Pyricularia oryzae; Pyricularia oryzae, 72 h, read-out: florylpicoxamid (A) inhibition (%), Table 1, florylpicoxamid alone 0.0031 ppm",0%
same,inhibition at 0.0063 ppm,"Pyricularia oryzae; Pyricularia oryzae, 72 h, read-out: florylpicoxamid (A) inhibition (%), Table 1, florylpicoxamid alone 0.0063 ppm",0%
same,inhibition at 0.0125 ppm,"Pyricularia oryzae; Pyricularia oryzae, 72 h, read-out: florylpicoxamid (A) inhibition (%), Table 1, florylpicoxamid alone 0.0125 ppm",0%
same,inhibition at 0.025 ppm,"Pyricularia oryzae; Pyricularia oryzae, 72 h, read-out: florylpicoxamid (A) inhibition (%), Table 1, florylpicoxamid alone 0.0250 ppm",0%
same,inhibition at 0.05 ppm,"Pyricularia oryzae; Pyricularia oryzae, 72 h, read-out: florylpicoxamid (A) inhibition (%), Table 1, florylpicoxamid alone 0.0500 ppm",0%
same,inhibition at 0.1 ppm,"Pyricularia oryzae; Pyricularia oryzae, 72 h, read-out: florylpicoxamid (A) inhibition (%), Table 1, florylpicoxamid alone 0.1000 ppm",20%
same,inhibition at 0.1 ppm,"Pyricularia oryzae; Pyricularia oryzae, 72 h, read-out: florylpicoxamid (A) inhibition (%), Table 2, florylpicoxamid alone 0.1000 ppm",20%
same,inhibition at 0.2 ppm,"Pyricularia oryzae; Pyricularia oryzae, 72 h, read-out: florylpicoxamid (A) inhibition (%), Table 2, florylpicoxamid alone 0.2000 ppm",50%
same,inhibition at 0.025 ppm,"Pyricularia oryzae; Pyricularia oryzae, 72 h, read-out: florylpicoxamid (A) inhibition (%), Table 3, florylpicoxamid alone 0.0250 ppm",0%
same,inhibition at 0.05 ppm,"Pyricularia oryzae; Pyricularia oryzae, 72 h, read-out: florylpicoxamid (A) inhibition (%), Table 3, florylpicoxamid alone 0.0500 ppm",20%
same,inhibition at 0.1 ppm,"Pyricularia oryzae; Pyricularia oryzae, 72 h, read-out: florylpicoxamid (A) inhibition (%), Table 3, florylpicoxamid alone 0.1000 ppm",30%
same,inhibition at 0.2 ppm,"Pyricularia oryzae; Pyricularia oryzae, 72 h, read-out: florylpicoxamid (A) inhibition (%), Table 3, florylpicoxamid alone 0.2000 ppm",60%
CON(C(=O)c1cn(C)nc1C(F)F)C(C)Cc1c(Cl)cc(Cl)cc1Cl (stereo not drawn) [pydiflumetofen],pydiflumetofen (B) inhibition (%),Mycosphaerella arachidis; pydiflumetofen alone 0.0025 ppm,1%
same,pydiflumetofen (B) inhibition (%),Mycosphaerella arachidis; pydiflumetofen alone 0.0050 ppm,0%
same,pydiflumetofen (B) inhibition (%),Mycosphaerella arachidis; pydiflumetofen alone 0.0100 ppm,28%
same,pydiflumetofen (B) inhibition (%),Mycosphaerella arachidis; pydiflumetofen alone 0.0200 ppm,70%
